Here are results for two compounds from patent US8791158B2, “Methods of treating meibomian gland dysfunction” (GTX, Inc., priority 2010, dated 2014).

Experiment [1] relates to Meibomian gland secretions of rabbits. The note with it: cited from earlier work.
The test system of experiment [2] is acute, orchiectomized (ORX) rabbit model. Put plainly: Tear fatty acid composition (palmitate:stearate ratio) after Compound 2 or TP, Example 3. The conditions noted are these: ORX rabbits. The experiment is classed as in vivo. The source says: The goal of this study was to compare the effect of Compound 2 to testosterone propionate (TP) on tear composition in an acute, orchiectomized (ORX) rabbit model.
Fifteen New Zealand white rabbits weighing approximately 3 lbs were allowed to acclimate for 4 weeks before the start of the study. Animals were weighed on day 0 of the study, randomized according to body weight and allotted to the following dose groups:
Pre-dose tear and blood samples were collected. Animals from groups 2-5 were to premedicated with glycopyrrolate (0.02 mg/kg) and then anesthesia was induced with a combination of ketamine (15 mg/kg): medetomidine (0.25 mg/kg).
Anesthesia was maintained with isoflurane (1 liter/hr). Orchiectomy was performed using a scrotal incision. Animals were revived from anesthesia using atipamezole (1 mg/kg) SQ. Analgesia was provided with buprenorphine (0.05 mg/kg) Immediately after the animals had recovered from anesthesia, they received their first dose with the appropriate test articles as indicated above.
Drug dosing was done once daily for 14 days. Blood was collected at 60 minutes post administration of the last dose of drug and plasma separated for HPLC analysis of parent drug concentrations.
Tears were collected using Schirmer tear strips (Alcon, Tex.) on day 0 before surgery, 24 hours after the last administration of drug (day 15) and also at 42 days (6 weeks after start of study). The tears were stored at −80° C. prior to lipid analysis.
Lipids were hydrolyzed, extracted from the Schirmer strips, derivatized, and subjected to gas chromatography with flame ionization detector (GCFID) to evaluate the lipid composition.
The samples were evaluated for the presence of 28 saturated and unsaturated fatty acids that included methyl caprate (C10:0), methyl laurate (C12:0), methyl 11-dodecenoate (C12:1), methyl myristate (C14:0), methyl myristoleate (C14:1), methyl palmitate (C16:0), methyl palmitoleate (C16:1), methyl stearate (C18:0), methyl oleate (C18:1), methyl vaccenate (C18:1), methyl linoleate (C18:2), methyl gamma linoleate (C18:3), methyl linoleate (C18:3), methyl arachidate (C20:0), methyl 11-eicosenoate (C20:1), methyl 11,14 eicosadinoate (C20:2), methyl 8,11,14 eicosatrienoate (C20:3), methyl eicosapentaenoate (C20:5), methyl behenate (C22:0), methyl erucate (C22:1), methyl 13,16 docosaenoate (C22:2), methyl docosatetraenoate (C22:4), methyl docosapentaenoate (C22:5), methyl docosahexaenoate (C22:6), methyl lignocerate (C24:0), and methyl nervonate (C24:1).
The area under the curve for each individual peak was determined using GC ChemStation software. […] These samples were then washed with a saturated solution of NaCl+0.1% formic acid (FA). […] These samples were all in the predose tear group. Two more samples from the predose group and one sample from Vehicle Intact treated group had small but clear and well to separated peaks that were included in the analysis.
To normalize for the tear content, the lipid composition was expressed as a ratio of the lipid that was most affected by castration (palmitate) to one which remained relatively constant (stearate). Blood was also collected on day 15 (24 hours after last drug administration) of the study, plasma separated and analyzed for Compound 2.
The last dose of drug or vehicle was administered on day 15 of the study Animals were left untreated for 4 weeks (washout period) before tear samples were collected again on Schirmer tear strips and analyzed as indicated above.

Take `C[C@]12CC[C@H]3[C@@H](CCC4=CC(=O)CC[C@@H]43)[C@@H]1CC[C@@H]2O` [19-nortestosterone]: the “Effect on fatty acid profile in total and neutral lipid fractions of Meibomian gland secretions” value in experiment [1] is given as “modulated the fatty acid profile”. Take `CCC(=O)O[C@H]1CC[C@H]2[C@@H]3CCC4=CC(=O)CC[C@]4(C)[C@H]3CC[C@]12C` [TP, testosterone propionate, reference compound]: in experiment [2] (2.5 mg/kg, 14 days), the “Increase of tear palmitate:stearate ratio relative to intact animals” value is listed as “two times that of intact animals”. For the same compound, the “Tear palmitate:stearate ratio after 4 week washout” value in experiment [2] (SQ 2.5 mg/kg for two weeks, then untreated 4 weeks) was 1.67±0.17.
